Experimental data published in PubChem BioAssay AID179 (DTP/NCI, 2004).
Calls of active or inactive are those of the source.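 How the source made its calls: active means compounds giving half or more protection of infected cells from virus-caused growth loss, again on retest; inactive means the rest.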

Tested on: CEM cells HIV-1 protection, formazan growth assay
Test: NCI AIDS Antiviral Assay
Settings: for IC50: measured here: growth of uninfected CEM cells
Method in brief: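 Screen of anti-HIV-1 activity in human CEM cells using a formazan-based growth measurement at five drug concentrations. Hits with 50% or greater protection were repeated, and confirmation required reproducible complete protection.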

| SMILES | outcome | EC50 [µM] | IC50 [µM] |
| --- | --- | --- | --- |
| CC1CCC23COC(=O)C2=CCCC3C1(C)CC/C(=C/CO)CO (configuration not stated) | inactive |  |  |
| NC1(N2SC(S)=C3CCCC=C32)CCCCC1 |  | 42.7 | > 200 |
| Cc1cc2nnc(-c3cccc([N+](=O)[O-])c3)n2c2nnnn12 |  | > 200 | > 200 |
| Cc1ccc(C2CC3(c4ccccc4)ON=C(c4ccccc4)N3c3ccccc3S2)cc1 (configuration not stated) |  | > 200 | 41.7 |
| CCOC(=O)NC(=O)c1cn(C2CCCCC2)c(=O)n(C)c1=O |  | > 81.3 | > 81.3 |
| Cc1cccc2c3ccc4c(c3n(C)c12)C(=O)C=CC4=O |  | > 49 | 24.5 |
| CN(C)/C=C(\C(=O)c1ccccc1)n1nc(-c2ccccc2)cc1-c1ccccc1 |  | > 200 | 87.1 |
| CC(=O)NC1CC2Oc3ccc(C)cc3C(C)(O2)C1O (configuration not stated) | inactive |  |  |
| CC(C)CCCC(C)[C@H]1CC[C@@H]2[C@H]3CC[C@H]4C[C@@H](CCC=C(c5cc(Cl)c(OCc6ccccc6[N+](=O)[O-])c(C(=O)OCc6ccccc6[N+](=O)[O-])c5)c5cc(Cl)c(OCc6ccccc6[N+](=O)[O-])c(C(=O)OCc6ccccc6[N+](=O)[O-])c5)CC[C@]4(C)[C@@H]3CC[C@]12C (some centres not stated) |  | 112 | > 200 |
| O=C(Nc1ccc(CCC2=NCCCN2)cc1)c1ccc(C(=O)Nc2ccc(CCC3=NCCCN3)cc2)cc1 |  | 42.7 | 158 |
| Cc1cc2c(C(C)C)c(O)c(O)c(C=Nc3cccc(Cl)c3)c2c(O)c1-c1c(C)cc2c(C(C)C)c(O)c(O)c(C=Nc3cccc(Cl)c3)c2c1O | inactive |  |  |
| OCCOCn1nc(-c2ccccc2)nc1-c1cnccn1 |  | > 200 | > 200 |
| CC1=C(/C(C)=C\C(=O)O)CC2C(C)C(=O)CO[C@H]2C1 (some centres not stated) | inactive |  |  |
| O=C(O)CCCCCCCCCCCCl |  | > 200 | 91.2 |
| COC(=O)CCCC(=O)C1=Nc2ccccc2CN(c2ccc(Cl)cc2)N1 |  | > 200 | 126 |
| C[C@H](N)C(=O)N[C@@H]1[C@H]2C(=C(O)C[C@@H](O)[C@@H]2O)C(=O)O[C@]1(C)C(Cl)Cl |  | > 67.6 | 0.224 |
| OCC1CC2C=CCC(C2)C1 (configuration not stated) | inactive |  |  |
| CC1(C)CCNc2ccccc2S1 |  | > 229 | > 229 |
| CC(=O)NNc1nc(C)c(C(=O)/C=C/c2ccc(Cl)cc2)s1 |  | > 56.2 | > 56.2 |
| Nc1nc(Cl)cc2nsnc12 |  | > 28.2 | > 28.2 |

| SMILES | outcome | EC50 [µM] | IC50 [µM] |
| --- | --- | --- | --- |
| Cc1cc(C#N)c(Nc2c(C)cccc2[N+](=O)[O-])s1 |  | > 200 | 158 |
| Nc1ccc([N+](=O)[O-])cc1CN1C(=O)c2ccccc2C1=O |  | > 200 | > 200 |
| Cc1ccc(C)c(NC(=O)C(=O)C2C(=O)N(c3ccccc3)N=C2N)c1 (configuration not stated) |  | > 708 | 631 |
| COc1ccc(N2C(=O)c3cc([N+](=O)[O-])cnc3S2(=O)=O)cc1 |  | > 200 | 28.2 |
| O=C(OCC1OC(c2nn[nH]n2)C(OC(=O)c2ccccc2)C1OC(=O)c1ccccc1)c1ccccc1 (configuration not stated) |  | > 200 | 70.8 |
| O=C(/C=C/c1ccc(O)c(O)c1)OCC(OC(=O)/C=C/c1ccc(O)c(O)c1)C(=O)O (configuration not stated) |  | > 200 | 28.2 |
| COC(=O)c1c(-c2ccccc2)c(C(O)c2ccccc2)n2ccccc12 (configuration not stated) |  | > 26.3 | 14.1 |
| O=C(O)c1cc(N=Cc2cc(O)ccc2O)ccc1O |  | > 182 | 22.9 |
| COC(=O)c1cc(C(=O)Nc2cc(Cc3cc(NC(=O)c4ccc(OC)c(C(=O)OC)c4)c(OC)c(C(=O)OC)c3)cc(C(=O)OC)c2OC)ccc1OC |  | > 200 | > 200 |
| O=C1c2c(F)c(F)c(F)c(F)c2SC2=Nc3cccc4cccc(c34)N12 |  | > 200 | 1 |
| CC(=O)N1C(=O)CC(c2ccccc2)Sc2ccccc21 (configuration not stated) |  | > 151 | > 151 |
| O=C1c2ccccc2C(=O)c2c(NCCOCCO)ccc(NCCOCCO)c21 |  | > 200 | 107 |
| COC(=O)C(CCSC)NC(=O)Cc1ccc(C(=O)c2ccccc2)cc1 (configuration not stated) |  | > 200 | 34.7 |
| Cc1cn(C2CC(OC3CCCCO3)C(CO)O2)c(=O)[nH]c1=O (configuration not stated) |  | > 200 | > 200 |
| COc1ccc2oc(=N)c(C(=O)Nc3ccccc3)cc2c1 |  | > 200 | 12 |
| C=CCN1CN(c2ccccc2)C2(CCN(CCCC3(c4ccc(F)cc4)OCCO3)CC2)C1=O |  | > 200 | 11.5 |
| Cc1cccc(NC(=O)Nc2cccc(Cl)c2Cl)n1 |  | > 200 | > 200 |
| CC(O)C(O)C(N)CC=O (configuration not stated) |  | > 200 | > 200 |
| C[C@@]1(Cc2ccccc2)C(=O)N2[C@@H](CO)C(c3ccccc3)O[C@]2(C)c2ccccc21 (some centres not stated) |  | > 33.1 | > 33.1 |
| O=C1/C(=C/c2ccc(O)c(O)c2)CC/C1=C\c1ccc(O)c(O)c1 |  | > 200 | 10.7 |

| SMILES | outcome | EC50 [µM] | IC50 [µM] |
| --- | --- | --- | --- |
| CC(C#N)Nc1ccc(Oc2ccc(C(C)(C)c3ccc(Oc4ccc(NC(C)C#N)cc4)cc3)cc2)cc1 (configuration not stated) |  | > 200 | 13.5 |
| CC1(CO)COc2ccccc2C1=O (configuration not stated) |  | > 200 | > 200 |
| C1=CC2C=CC(C=C1)[PH+]2c1ccccc1.[C-]#[O+].[C-]#[O+].[C-]#[O+].[C-]#[O+].[C-]#[O+].[Cr] (configuration not stated) |  | > 6.76 | > 6.76 |
| O=C1c2cc3c(cc2CC12Cc1ccc4c(c1C2=O)CCC4)CCCC3 (configuration not stated) |  | > 200 | > 200 |
| O=C(CC(NC(=O)OCc1ccccc1)C(=O)NC1Cc2ccccc2C1=O)OCc1ccccc1 (configuration not stated) |  | > 200 | > 200 |
| CCOP(=O)(CC1CC(O)(CNc2cc(Cl)nc(N)n2)C1)OCC (configuration not stated) |  | > 200 | > 200 |
| CC(=O)OCC1C(OC(C)=O)CC2CCC1N2C#N (configuration not stated) |  | > 200 | > 200 |
| O=C(Nc1ccc(C2=NCCN2)cc1)c1cc(C(=O)Nc2ccc(C3=NCCN3)cc2)ncn1 |  | 12.3 | 61.7 |
| Cc1ccc(C)n1-c1ccccc1C1C=CN(C(=O)OC(C)(C)C)C=C1 |  | > 200 | 30.2 |
| COc1ccc(/C=C2\C(=O)N(NC(C)=O)c3ccccc32)cc1 |  | > 309 | 52.5 |
| Cc1cc2n[n+]3[n-]cc(-c4ccccc4)n3c2cc1[N+](=O)[O-] |  | > 200 | > 200 |
| CCCOc1ccc2[nH]cc(C(COC)c3c[nH]c4ccc(OCCC)cc34)c2c1 |  | > 200 | 12.9 |
| COc1ccc2c(c1)N1CCc3cc(OC)c(OC)cc3C1C2 (configuration not stated) | inactive |  |  |
| O=C1C(c2ccccc2)=C(c2ccccc2)C(c2ccccc2)/C1=C1\C(=O)C(c2ccccc2)=C(c2ccccc2)C1c1ccccc1 (configuration not stated) | inactive |  |  |
| Cn1ccc(C(=O)NCCCCCNC(=O)c2ccn(C)c(=O)c2O)c(O)c1=O |  | > 200 | > 200 |
| CC(=O)N=C1N(/C=C2\C(=O)Oc3ccccc3C2=O)C(=O)/C(=C/c2ccc3c(c2)OCO3)N1C |  | > 200 | > 200 |
| CN=C(NC#N)NCc1ccccc1 |  | > 1320 | 1200 |
| COc1cccc(/C=N\NC(=O)C(C)SC(C)C(=O)N/N=C/c2cccc(OC)c2)c1 (configuration not stated) | inactive |  |  |
| O=C1C2CCCC3CCCC(C(=O)N1O)C32 (configuration not stated) |  | > 200 | 39.8 |
| COC(=O)Cc1c([C@H]2[C@H](CC(=O)OC)c3ccccc3N2C(=O)C(F)(F)F)[nH]c2ccccc12 |  | > 200 | 27.5 |
